A short description of this series: RP, Thermo Scientific Acclaim RSLC 120 C18, 100 × 2.1 mm, 2.2 µm, 30 °C, 0.2 mL/min, estimated dead time 1.1 min; A: 90% water + 10% methanol + 0.01% formic acid + 5 mM ammonium formate, pH 3.61; B: methanol + 0.01% formic acid + 5 mM ammonium formate, pH 3.61; gradient (min/%B) 0/1 1/1 2/39 13/99.9 15/99.9 15.1/1 20.1/1. The note with it: stereoisomer not certain.
Take `CCCCc1oc2ccc(NS(C)(=O)=O)cc2c1C(=O)c1ccc(OCCCN(CCCC)CCCC)cc1` [Dronedarone]: the LC retention time is 10.1 min.

For the molecule `O=C(CCCN1CC=C(n2c(=O)[nH]c3ccccc32)CC1)c1ccc(F)cc1` [Droperidol], the LC retention time is 6.16 min.

Regarding `OCC(O)CN1CCN(c2ccccc2)CC1` (stereo unspecified) [Dropropizine], the LC retention time is 3.79 min.

On to `CC12CCC(=O)C=C1C1CC1C1C2CCC2(C)C1C1CC1C21CCC(=O)O1` (stereo unspecified) [Drospirenone], for which the LC retention time is 9.56 min.

Take `CNCCC(Oc1cccc2ccccc12)c1cccs1` (stereo unspecified) [Duloxetine]: the LC retention time is 8.11 min.

Take `CC(=O)C1CCC2C3C=CC4=CC(=O)CCC4(C)C3CCC12C` (stereo unspecified) [Dydrogesterone]: the LC retention time is 10.7 min.

Take `CC12CCC3c4ccc(O)cc4CCC3C1CCC2=O` (stereo unspecified) [E1 (1-3-5(10)-estratrien-3-ol-17-one estrone)]: the LC retention time is 9.56 min.

With `CC12CCC3c4ccc(O)cc4CCC3C1CC(O)C2O` (stereo unspecified) [E3  estriol (1-3-5(10)-estratrien-3 16-17-triol)], the LC retention time was 6.83 min.

Take `CCc1ccc(C(=O)c2cn(CCCCCF)c3ccccc23)c2ccccc12` [EAM-2201]: the LC retention time was 12.2 min.

Regarding `CC=C1N(C)C(C)CC1(c1ccccc1)c1ccccc1` (stereo unspecified) [EDDP], the LC retention time is 6.38 min.

In the case of `C#CC1(O)CCC2C3CCc4cc(O)ccc4C3CCC21C` (stereo unspecified) [EE2 - Ethinyl estradiol], the LC retention time was 9.46 min.

For the molecule `CCCCCn1c2ccccc2c2cc(C(=O)c3cccc4ccccc34)ccc21` [EG-018], the LC retention time was 14.2 min.

Turning to `COC(=O)C1C(O)CC2CCC1N2C` (stereo unspecified) [EME (Ecgonine methyl ester)], the LC retention time is 1.38 min.

Turning to `CCOP(=S)(Oc1ccc([N+](=O)[O-])cc1)c1ccccc1` (stereo unspecified) [EPN], the LC retention time is 11.7 min.

For the molecule `CCCN(CCC)C(=O)SCC` [EPTC], the LC retention time was 10.7 min.

Take `CCC(N)Cc1c[nH]c2ccccc12` (stereo not drawn) [ET- alpha]: the LC retention time is 5.04 min.

With `CC(C)(C)c1ccc(C(=O)CCCN2CCC(OC(c3ccccc3)c3ccccc3)CC2)cc1` [Ebastine], the LC retention time is 10.9 min.

For the molecule `CCOP(=O)(Sc1ccccc1)Sc1ccccc1` [Edifenphos], the LC retention time was 10.8 min.

Take `O=C1Nc2ccc(Cl)cc2C(C#CC2CC2)(C(F)(F)F)O1` (stereo unspecified) [Efavirenz]: the LC retention time is 10.7 min.

Turning to `CN1CCCC1Cc1c[nH]c2ccc(CCS(=O)(=O)c3ccccc3)cc12` (stereo unspecified) [Eletriptan], the LC retention time was 5.51 min.

With `CCC(C)C1OC2(C=CC1C)CC1CC(CC=C(C)C(OC3CC(OC)C(OC4CC(OC)C(NC)C(C)O4)C(C)O3)C(C)C=CC=C3COC4C(O)C(C)=CC(C(=O)O1)C34O)O2` (stereo unspecified) [Emamectin B1a], the LC retention time is 12.4 min.

For the molecule `CNC1C(C)OC(OC2C(C)OC(OC3C(C)=CCC4CC(CC5(C=CC(C)C(C(C)C)O5)O4)OC(=O)C4C=C(C)C(O)C5OCC(=CC=CC3C)C45O)CC2OC)CC1OC` (stereo unspecified) [Emamectin B1b], the LC retention time is 12 min.

`CCC(CC)(CNC(=O)CCCO)c1cccc(OC)c1` [Embutramide]: the LC retention time is 8.98 min.

Regarding `Nc1nc(=O)n(C2CSC(CO)O2)cc1F` (stereo unspecified) [Emtricitabine], the LC retention time was 3.41 min.

As for `CCOC(=O)C(CCc1ccccc1)NC(C)C(=O)N1CCCC1C(=O)O` (stereo unspecified) [Enalapril], the LC retention time is 6.83 min.

In the case of `O=S1(=O)OCC2C(CO1)C1(Cl)C(Cl)=C(Cl)C2(Cl)C1(Cl)Cl` (stereo unspecified) [Endosulfan-sulfate], the LC retention time was 11.1 min.

For `O=S1OCC2C(CO1)C1(Cl)C(Cl)=C(Cl)C2(Cl)C1(Cl)Cl` (stereo unspecified) [Endosulfan], the LC retention time was 11.2 min.

As for `O=C(O)C1C2CCC(O2)C1C(=O)O` (stereo unspecified) [Endothal], the LC retention time is 3.2 min.

As to `CSc1ccc(C(=O)c2[nH]c(=O)[nH]c2C)cc1` [Enoximon], the LC retention time is 6.67 min.

Turning to `CCN1CCN(c2cc3c(cc2F)c(=O)c(C(=O)O)cn3C2CC2)CC1` [Enrofloxacin], the LC retention time is 4.64 min.

Turning to `CCN(CC)C(=O)C(C#N)=Cc1cc(O)c(O)c([N+](=O)[O-])c1` [Entacapon], the LC retention time was 6.89 min.

Turning to `CNCC(O)c1ccc(O)c(O)c1` (stereo unspecified) [Epinephrine], the LC retention time is 1.38 min.

As for `Fc1ccc(C2(Cn3cncn3)OC2c2ccccc2Cl)cc1` (stereo unspecified) [Epoxiconazole], the LC retention time was 10.3 min.

Regarding `CCCCc1ncc(C=C(Cc2cccs2)C(=O)O)n1Cc1ccc(C(=O)O)cc1` [Eprosartan], the LC retention time was 7.49 min.

With `CC(C)C1(NC(=O)C2CC3c4cccc5[nH]cc(c45)CC3N(C)C2)OC2(O)C3CCCN3C(=O)C(Cc3ccccc3)N2C1=O` (stereo unspecified) [Ergocristine-Dihydro], the LC retention time was 8.17 min.

Regarding `CCC(CO)NC(=O)C1C=C2c3cccc4[nH]cc(c34)CC2N(C)C1` (stereo unspecified) [Ergometrine-Methyl], the LC retention time is 4.34 min.

For `CCC1OC(=O)C(C)C(OC2CC(C)(OC)C(O)C(C)O2)C(C)C(OC2OC(C)CC(N(C)C)C2O)C(C)(O)CC(C)C(=O)C(C)C(O)C1(C)O` (stereo unspecified) [Erythromycin], the LC retention time was 8 min.

Regarding `O=c1ccc2cc(OC3OC(CO)C(O)C(O)C3O)c(O)cc2o1` (stereo unspecified) [Esculin], the LC retention time is 3.69 min.

`COC(=O)CCc1ccc(OCC(O)CNC(C)C)cc1` (stereo unspecified) [Esmolol]: the LC retention time was 5.18 min.

Take `CCN(C(=O)SCc1ccccc1)C(C)C(C)C` (stereo unspecified) [Esprocarb]: the LC retention time was 12.2 min.

In the case of `Clc1ccc2c(c1)C(c1ccccc1)=NCc1nncn1-2` [Estazolam], the LC retention time is 8.14 min.

Take `CCOC1OC(C(=O)O)C(O)C(O)C1O` (stereo unspecified) [EtG (Na)]: the LC retention time was 1.52 min.

Turning to `CCC1COC(Cn2cncn2)(c2ccc(Cl)cc2Cl)O1` (stereo unspecified) [Etaconazole], the LC retention time was 10.2 min.

As for `CCC(CO)NCCNC(CC)CO` (stereo unspecified) [Ethambutol], the LC retention time is 1.93 min.

With `CCOc1ccccc1C(N)=O` [Ethenzamide], the LC retention time was 5.68 min.

On to `CCS(=O)(=O)Cc1ccccc1OC(=O)NC` [Ethiofencarb-sulfone], for which the LC retention time was 4.63 min.

As for `CCS(=O)Cc1ccccc1OC(=O)NC` (stereo unspecified) [Ethiofencarb-sulfoxide], the LC retention time was 4.7 min.

On to `CCOP(=S)(OCC)SCSP(=S)(OCC)OCC` [Ethion], for which the LC retention time is 12.4 min.

In the case of `CCS(=O)c1c(C#N)nn(-c2c(Cl)cc(C(F)(F)F)cc2Cl)c1N` (stereo unspecified) [Ethiprole], the LC retention time is 9.32 min.

For `CCCCc1c(C)nc(NCC)[nH]c1=O` [Ethirimol], the LC retention time was 8 min.

Turning to `CCOC1Oc2ccc(OS(C)(=O)=O)cc2C1(C)C` (stereo unspecified) [Ethofumesate], the LC retention time is 9.14 min.

`CCOc1cc(NC(C)=O)ccc1C(=O)OC` [Ethopabate]: the LC retention time was 6.63 min.

Regarding `CCCSP(=O)(OCC)SCCC` [Ethoprophos], the LC retention time was 10.2 min.

In the case of `CCOc1ccc2c(c1)C(C)=CC(C)(C)N2` [Ethoxyquin], the LC retention time was 10.1 min.

For `CCOc1ccccc1OS(=O)(=O)NC(=O)Nc1nc(OC)cc(OC)n1` [Ethoxysulfuron], the LC retention time is 9.32 min.

For the molecule `CCOS(=O)(=O)O` [Ethyl Sulphate (NH4)], the LC retention time was 1.58 min.

Take `CCNC(C)C(=O)c1ccc2c(c1)OCO2` (stereo unspecified) [Ethylone]: the LC retention time was 4.04 min.

Take `CCOC(=O)c1ccc(O)cc1` [Ethylparaben]: the LC retention time was 7.15 min.

Take `CCOC(=O)C(c1ccccc1)N1CCCCC1` (stereo unspecified) [Ethylphenidate]: the LC retention time is 5.08 min.

With `CCNCC(O)c1cccc(O)c1` (stereo unspecified) [Etilefrine], the LC retention time is 2.66 min.

On to `CCc1cc2c(s1)-n1c(C)nnc1CN=C2c1ccccc1Cl` [Etizolam], for which the LC retention time is 8.31 min.

`CCc1cccc2c3c([nH]c12)C(CC)(CC(=O)O)OCC3` (stereo unspecified) [Etodolac]: the LC retention time is 10.6 min.

`OCCOCCOCCN1CCN(C(c2ccccc2)c2ccc(Cl)cc2)CC1` (stereo unspecified) [Etodroxizine]: the LC retention time was 8.33 min.

For `CCOc1ccc(C(C)(C)COCc2cccc(Oc3ccccc3)c2)cc1` [Etofenprox], the LC retention time is 14.1 min.

Take `Cn1c(=O)c2c(ncn2CCO)n(C)c1=O` [Etofylline]: the LC retention time was 4.09 min.

In the case of `CCOc1cc(C(C)(C)C)ccc1C1COC(c2c(F)cccc2F)=N1` (stereo unspecified) [Etoxazole], the LC retention time is 12.8 min.

On to `CCOc1cc(OP(=S)(OC)OC)nc(CC)n1` [Etrimfos], for which the LC retention time is 11 min.

Take `C=C1CC2C(CCC3(C)C(=O)CCC23)C2(C)C=CC(=O)C=C12` (stereo unspecified) [Exemestane]: the LC retention time was 9.03 min.

Turning to `CC1(C)C(C(=O)c2nn(CCCCCF)c3ccccc23)C1(C)C` [FAB-144], the LC retention time was 12.7 min.

Regarding `O=C(Oc1cccc2ccccc12)c1cn(Cc2ccc(F)cc2)c2ccccc12` [FDU-PB-22], the LC retention time is 12.6 min.

For `CC1(C)C(C(=O)c2cn(Cc3ccc(F)cc3)c3ccccc23)C1(C)C` [FUB-144], the LC retention time was 12.2 min.

For the molecule `O=C(NC12CC3CC(CC(C3)C1)C2)c1nn(Cc2ccc(F)cc2)c2ccccc12` [FUB-AKB48], the LC retention time is 13 min.

In the case of `COC(=O)C(NC(=O)c1nn(Cc2ccc(F)cc2)c2ccccc12)C(C)C` (stereo unspecified) [FUB-AMB], the LC retention time is 10.8 min.

Consider `O=C(Oc1cccc2cccnc12)c1cn(Cc2ccc(F)cc2)c2ccccc12` [FUB-PB-22], for which the LC retention time is 11.1 min.

Regarding `O=C(c1cccc2ccccc12)c1nc2ccccc2n1CCCCCF` [FUBIMINA], the LC retention time is 11.6 min.

`NC(N)=Nc1nc(CSCCC(N)=NS(N)(=O)=O)cs1` [Famotidine]: the LC retention time is 3.24 min.

(Values after the RepoRT retention time repository (doi:10.1021/acs.analchem.2c02893).)
